According to US11773078B2, “Furin inhibitors” (Glaxosmithkline Intellectual Property Development Limited, priority 2018, dated 2023):
Where a name gives a salt, the structure may show the parent alone.

Assays:
[1] = system: hydroxyproline (a specific marker for collagen) in mouse lung; test: Bleomycin induced lung fibrosis model: hydroxyproline assay; type: in vivo; conditions: 10 mg/kg, Intra-peritoneal, Twice daily; relative to levels induced by Bleomycin in vehicle treated animals; *p < 0.05
Protocol: (§1) Preclinical pulmonary fibrosis can be induced by single instillation of Bleomycin to the mouse lung. A 15-day Bleomycin protocol was developed to evaluate compounds of the invention in vivo for their ability to inhibit TGFβ secretion and collagen deposition in the mouse lung. On the day before Bleomycin instillation, compounds were administrated to mice based on the appropriate route and frequency. On the study initiation day, under Ketamine (80 mg/kg) and Xylazine (10 mg/kg) anesthesia, all the animals were cannulated oro-tracheally and 50 μL of normal saline (Sham control) or 0.03 U Bleomycin in 50 μL saline (all groups except sham control group) was delivered into the trachea. Compounds were dosed daily until the end of study on Day 15. On termination day, animals were euthanized using CO2 inhalation. The right lung was collected, washed in normal saline, weighed, flash frozen in liquid nitrogen and stored at −80° C. for hydroxyproline (a specific marker for collagen) and TGFβ assays.
(§2) Flash frozen whole right lung tissues were homogenized in 500 μL of RIPA buffer containing PMSF and protease inhibitor cocktail using zirconium oxide bead based homogenizer (Bullet blender Gold, NextAdvance, Germany). Briefly, tissues were spun in the homogenizer at 4° C. for three cycles of 10 minutes each at 1000 g. A complete uniform tissue mixture was obtained using this procedure. The homogenate volume was made up to 1.5 mL by adding 1 mL of RIPA buffer containing PMSF and protease inhibitor cocktail to 500 μL of homogenate. The homogenate was stored as aliquots of 100-500 μL each at −80° C.
Acid hydrolysis: 500 μL of the homogenized lung parenchyma was transferred to glass vials, and an equal volume of 12N HCl was added (final concentration of HCl: 6N). The vials were purged with nitrogen gas, sealed and incubated overnight (16 h) under anoxic conditions at 110° C.
Post incubation procedures: 35 μL of the sample from each tube or standard (prepared by serial dilution of hydroxyproline stock solution) was added onto a 96 well plate and the assay was performed as per the kit protocol (Quickzyme Biosciences: Cat #: QZBHYPR05). After the final color development, absorbance was measured by colorimetric analysis at 570 nm (using Thermoscan spectrum (Plate Reader) and results were recorded. Standard curve (linear graph) was generated by using hydroxyproline standards provided in the Quickzyme kit.

[2] = system: epithelial sodium channel (ENaC); test: TEER assay, chronic or acute treatment, Non-CF Polarized Human Lobar Bronchial Epithelial Cells; type: cell-based; design: RTE Before Amil / RTE After Amil: unit not given here; conditions: for Delta RTE / RTE After Amil / RTE Before Amil: chronic treatment (overnight)
Protocol: (§3) Primary cultures of CF delF508 or non-CF HBE cells are seeded onto permeable filter supports and grown for 12-14 days for a significant RTE to be measured for TEER assays.
(§4) When the ENaC is active under basal conditions (at least in part due to protease cleavage inside the cell or at the apical membrane), there is a finite RTE that is affected by the Na+ current flowing through ENaC heterotrimers (αβγ or δβγ).

[3] = system: epithelial sodium channel (ENaC); test: Transepithelial Electrical Resistance (TEER) assay, primary CF delF508 or non-CF HBE cells (FIG. 6-9); type: cell-based, human
Protocol: as §3, §4

[4] = system: epithelial sodium channel (ENaC); test: Transepithelial fluid transport assay, CF delF508 HBE cells; type: cell-based, human
Protocol: Primary cultures of CF delF508 or non-CF HBE cells are seeded onto permeable filter supports and grown for 7 days for a significant RTE to be measured. Then, apical media is removed to initiate air-fluid interface (AFI) culture. When the cell monolayers are tight to fluid leak from basolateral to apical side of the cell monolayer, they are ready for fluid transport (fluid absorption) measurements.
Two methods are being used to challenge cell monolayers in AFI culture where there is no media in the apical side:
(1) A chronic overnight treatment was performed by adding the protease inhibitors (ENaC inhibitors) into the basolateral media. Then, […] of cell culture media is added to the apical side of each monolayer and fluid absorption measured (by the loss of volume in mls).
(2) An acute treatment was performed when the protease inhibitors (ENaC inhibitors) are added in the apical media in that […] volume (or media only or DMSO equivalents as controls).
In each case, fluid absorption is occurring against a 5× hydrostatic pressure gradient (i.e., there are 500 ml on the basolateral side and […] on the apical side).
When the ENaC is active under basal conditions (at least in part due to protease cleavage inside the cell or at the apical membrane), the absorptive Na+ current flowing through ENaC heterotrimers (αβγ or δβγ) creates an osmotic driving force for fluid absorption.

[5] = target: T1, Furin (108-574-Tev-Flag-His) enzyme (Homo sapiens, UniProt P09958); test: Furin enzyme assay; type: biochemical
T1 construct: Furin (108-574-Tev-Flag-His) enzyme was expressed and purified from CHO cells; TEV cleavage site (C); FLAG (C); His (C); made in house; host or cells: CHO cells
T1 sequence (P09958 108-574): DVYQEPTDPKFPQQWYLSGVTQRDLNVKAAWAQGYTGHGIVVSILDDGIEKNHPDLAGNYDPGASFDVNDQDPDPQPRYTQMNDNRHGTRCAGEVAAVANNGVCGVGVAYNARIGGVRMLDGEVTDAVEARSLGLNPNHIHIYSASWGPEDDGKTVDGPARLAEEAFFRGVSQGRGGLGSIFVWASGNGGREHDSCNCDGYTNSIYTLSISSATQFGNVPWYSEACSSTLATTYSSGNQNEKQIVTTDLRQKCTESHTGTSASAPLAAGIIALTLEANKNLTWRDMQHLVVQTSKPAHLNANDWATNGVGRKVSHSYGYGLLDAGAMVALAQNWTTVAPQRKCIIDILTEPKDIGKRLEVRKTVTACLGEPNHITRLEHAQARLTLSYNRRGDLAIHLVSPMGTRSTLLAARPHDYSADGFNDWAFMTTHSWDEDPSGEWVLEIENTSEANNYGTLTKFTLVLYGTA
How it was run: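 Compounds ran as 11-point threefold dilutions (0.00017–10 μM final) against 40 pM furin, purified from CHO cells, for 2 h at room temperature. Buffer: 100 mM HEPES pH7.5 with 1 mM CaCl2 and 0.005% Triton X-100. Envision readout. Four-parameter curve gives pXC50.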

[6] = system: TGFβ in mouse lung; test: Bleomycin induced lung fibrosis model: TGFβ assay; type: in vivo; conditions: 10 mg/kg, Intra-peritoneal, Twice daily; relative to levels induced by Bleomycin in vehicle treated animals; *p < 0.05
Protocol: as §1, §2
Lung tissue homogenates (500 μL) were spun at 13,000 rpm for 20 minutes at 4° C. and supernatants were collected for TGFβ estimation. The assay was performed according to the manufacturer's manual (R&D systems: Cat #SMB100B). Briefly, the lung homogenates were activated by acid activation followed by neutralization to convert latent TGFβ to active TGFβ and the total TGFβ levels in supernatants were measured. Total protein levels in the lung supernatant were also determined.

[7] = target: T2, furin (endogenous protease) in U20S cells (Homo sapiens, UniProt P09958); test: Furin cell-based assay (image-based, Golgi-targeted GFP with BMP10 furin/PCSK cleavage site); conditions: 24-hour incubation, read-out: furin golgi cell pXC50 (converted);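 also: Read-out is mean GFP fluorescence of Golgi puncta per cell by high-content imaging, retained when furin inhibited, over an eleven-point 0.00017–10 µM series, four-parameter fit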
T2 construct: the endogenous protease cleaves GFP; endogenous in cells; host or cells: U2OS cells transduced with a BacMam reporter
T2 sequence (P09958 108-794): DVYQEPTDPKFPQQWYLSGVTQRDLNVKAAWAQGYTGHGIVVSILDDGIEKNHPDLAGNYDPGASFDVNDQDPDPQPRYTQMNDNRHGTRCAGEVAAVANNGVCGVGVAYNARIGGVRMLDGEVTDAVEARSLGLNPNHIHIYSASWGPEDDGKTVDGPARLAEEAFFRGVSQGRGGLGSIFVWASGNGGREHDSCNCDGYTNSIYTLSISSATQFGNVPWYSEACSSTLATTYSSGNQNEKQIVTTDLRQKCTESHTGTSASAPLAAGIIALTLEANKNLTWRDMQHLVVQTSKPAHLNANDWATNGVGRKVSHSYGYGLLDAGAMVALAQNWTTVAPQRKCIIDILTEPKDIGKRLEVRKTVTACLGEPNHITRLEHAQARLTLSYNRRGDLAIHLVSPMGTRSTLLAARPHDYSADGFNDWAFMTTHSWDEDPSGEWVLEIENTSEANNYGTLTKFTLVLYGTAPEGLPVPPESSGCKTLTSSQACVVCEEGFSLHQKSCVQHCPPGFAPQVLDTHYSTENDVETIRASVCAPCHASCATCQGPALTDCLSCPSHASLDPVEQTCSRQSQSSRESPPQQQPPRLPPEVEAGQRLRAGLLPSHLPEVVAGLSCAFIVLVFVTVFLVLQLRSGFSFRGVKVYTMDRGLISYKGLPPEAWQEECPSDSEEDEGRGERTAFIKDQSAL
Protocol: This assay uses an image-based platform to evaluate the intracellular activity of compounds of the invention. Reactions were performed in black 384-well, tissue culture-treated, clear bottom plates (Greiner). Compounds under analysis were dissolved in DMSO (1.0 mM) and serially diluted 1 to 3 with DMSO through eleven dilutions. This creates a final compound concentration range from 0.00017 to 10 μM, and 0.1 μL of each concentration was transferred to the corresponding well of the assay plate. Assays were initiated by the addition of U20S cells simultaneously transduced with a BacMam-delivered construct containing a Golgi-targeting sequence followed by a 12-amino acid furin/PCSK cleavage site from Bone Morphogenic Protein 10 (BMP10) and then GFP at the C terminus. […] Briefly, frozen cells are thawed in assay media (Dulbecco's Modified Eagles Medium Nutritional Mixture F-12 (Ham) without phenol red containing 5% FBS) and diluted to deliver 6000 cells/well (50 μL) to the plate using a Multidrop Combi (Thermo).
After a 24-hour incubation period at 37° C., the cells are stained with Cell Mask Deep Red, fixed in paraformaldehyde and the nuclei stained using Ho33342. The Golgi-targeted GFP forms bright punctate clusters within the cell. In the absence of a furin inhibitor, the endogenous protease cleaves GFP from its N-acetylgalactosaminyltransferase-2 Golgi tether, releasing GFP into the Golgi lumen where fluorescence is diluted below the threshold of assay sensitivity. […] Cellular GFP intensity is determined by image-based acquisition (Incell 2200, Perkin Elmer) at 40× magnification with 4 fields measured per well. Multi-scale tophat segmentation is used to identify the GFP-tagged puncta and to quantitate the average fluorescence of all puncta on a per cell basis. Cellular toxicity is determined in parallel.
Data were analyzed using AbaseXE 7.3, utilizing a four-parameter curve fit equation. The following values were used to define limits and/or constraints for each of the four parameters: • Minimum—limit −10 to 10 • Maximum—90 to 110 • Slope—limit 0.5 to 2.0 • pXC50 confidence interval—10
Raw counts obtained from the respective plate reader (Perkin Elmer) were captured for data analysis. Curves were generated using the equation: Y=A+[(B−A)/(1+(10^C/x)^D)] • where: A=minimum response • B=maximum response • C=log 10*XC50 • D=slope factor • x=log 10 compound concentration [M]
The results were recorded as pXC50 values (−C in the above equation)

[8] = target: furin and PCSK 5/6; conditions: serpin protease inhibitor; specificity for furin and PCSK 5/6; from Couture et al. 2015; cited from earlier work

In the case of `CC(=O)NCC1CCN(Cc2cc(Oc3ccc(N4CCN(CCC(=O)O)CC4)nc3)nc(-c3cc(Cl)cc(Cl)c3)c2)CC1` [Example 11, 3-(4-(5-((4-((4-(Acetamidomethyl)piperidin-1-yl)methyl)-6-(3,5-dichlorophenyl)pyridin-2-yl)oxy)pyridin-2-yl)piperazin-1-yl)propanoic acid, 4 hydrochloride], the “% inhibition of hydroxyproline in lung” value [1] is reported as 67* %, the “acute effect on RTE” value ([2]; acute treatment, up to 3 μM) is reported as “equivalent acute effect to Aprotinin and a stronger effect than Camostat” and the “inhibition of amiloride-sensitive RTE delta (remaining ENaC activity)” value ([2]; acute treatment, up to 3 μM) is reported as “inhibited amiloride-sensitive RTE delta modestly”. For the same compound, the “effect on the amiloride-sensitive RTE delta” value ([2]; chronic overnight treatment, 3 μM, P<0.05) was “equivalent inhibitory effect”, the “Delta RTE” value ([2]; 0.1 μM) was “+181 ± 16” and the “RTE After Amil” value ([2]; 0.1 μM) was 697 ± 57. For the same compound, the “RTE Before Amil” value ([2]; 0.1 μM) was 517 ± 42, the “Delta RTE” value ([2]; 0.3 μM) was “+122 ± 6” and the “RTE After Amil” value ([2]; 0.3 μM) was 548 ± 13. The “RTE Before Amil” value ([2]; 0.3 μM) was 426 ± 10, the “Delta RTE” value ([2]; 1 μM) was “+133 ± 14” and the “RTE After Amil” value ([2]; 1 μM) was 605 ± 49. The “RTE Before Amil” value ([2]; 1 μM) was 472 ± 38, the “Delta RTE” value ([2]; 3 μM) was “+63 ± 7” and the “RTE After Amil” value ([2]; 3 μM) was 390 ± 18. The “RTE Before Amil” value ([2]; 3 μM) was 326 ± 16, the “amiloride-induced increase in RTE” value ([3]; compared to 'Media only' and 'DMSO (LTA)' controls, FIG. 6, *p<0.05) was “concentration-dependent reduction in amiloride-induced increase in RTE” and the “effectiveness on RTE compared to industry standards” value ([3]; compared to Camostat at the same concentration and Aprotinin at ˜10 μM, FIG. 7, overlap in CRCs only at 3 μM) was “more effective”. For the same compound, the “attenuation of rate of fluid lost” value ([4]; 1 and 3 μM) was 50%, the “attenuation of total fluid volume lost” value ([4]; 1 and 3 μM) was 50% and the absorptive fluid transport ([4]; compared to 'DMSO Equivalent' controls, FIG. 10 and FIG. 11) was “concentration-dependent attenuation of absorptive fluid transport”. The “furin enzyme pIC50” value [5] was 9.6, the “% inhibition of total TGFβ in lung” value [6] was 69* % and the EC50 [7] was 25.1 nM.

In the case of “α1-PDX: "an engineered variant of naturally occurring α-1-antitrypsin serum protease inhibitor"; "a serpin superfamily wide protease inhibitor with high specificity for furin and PCSK 5/6"”, the Ki [8] is listed as ≥ 0.6 nM.
